Reference: ChEMBL document CHEMBL1201862, “PubChem BioAssay data set” (2004)
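Step 1: Grow cells in 96-well plates. Step 2: Expose to compound for 48 hours at 5 concentrations. Step 3: Interpolate endpoints linearly; if unreached, use highest concentration. Abbreviation: GI50, concentration required for 50% inhibition of growth.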 Calls of active or inactive are those of the source. Cut-off read from the data, not from the text of the source: active = GI50 up to about 1.1 µM and inactive = higher.

Legend:
Test in all cases: NCI tumour cell line growth inhibition, 48 h
786-0 = system: 786-0
A498 = system: A498
A549 = system: A549
ACHN = system: ACHN
CAKI-1 = system: CAKI-1
CCRF-CEM = system: CCRF-CEM
COLO 205 = system: COLO 205
DU-145 = system: DU-145
EKVX = system: EKVX
HCC 2998 = system: HCC 2998
HCT-116 = system: HCT-116
HCT-15 = system: HCT-15
HL-60 = system: HL-60
HOP-62 = system: HOP-62
HOP-92 = system: HOP-92
HT-29 = system: HT-29
Hs-578T = system: Hs-578T
IGROV-1 = system: IGROV-1
K562 = system: K562
KM12 = system: KM12
LOX IMVI = system: LOX IMVI
M14 = system: M14
MCF7 = system: MCF7
MDA-MB-231 = system: MDA-MB-231
MDA-MB-435 = system: MDA-MB-435
MDA-N = system: MDA-N
MOLT-4 = system: MOLT-4
Malme-3M = system: Malme-3M
NCI-H226 = system: NCI-H226
NCI-H23 = system: NCI-H23
NCI-H522 = system: NCI-H522
NCI/ADR-RES = system: NCI/ADR-RES
OVCAR-3 = system: OVCAR-3
OVCAR-4 = system: OVCAR-4
OVCAR-5 = system: OVCAR-5
OVCAR-8 = system: OVCAR-8
PC-3 = system: PC-3
RPMI-8226 = system: RPMI-8226
RXF 393 = system: RXF 393
SF-268 = system: SF-268
SF-295 = system: SF-295
SF-539 = system: SF-539
SK-MEL-28 = system: SK-MEL-28
SK-MEL-2 = system: SK-MEL-2
SK-MEL-5 = system: SK-MEL-5
SK-OV-3 = system: SK-OV-3
SN12C = system: SN12C
SNB-19 = system: SNB-19
SNB-75 = system: SNB-75
SW-620 = system: SW-620
T47D = system: T47D
TK-10 = system: TK-10
U-251 = system: U-251
UACC-257 = system: UACC-257
UO-31 = system: UO-31

CCOC(=O)C(Cl)(NC(=O)OCc1ccccc1)C(F)(F)F (stereo not given)
GI50 (786-0): > 100 µM (inactive)
GI50 (A498): > 100 µM (inactive)
GI50 (A549): > 100 µM (inactive)
GI50 (ACHN): > 100 µM (inactive)
GI50 (CAKI-1): > 100 µM (inactive)
GI50 (CCRF-CEM): > 100 µM (inactive)
GI50 (COLO 205): > 100 µM (inactive)
GI50 (DU-145): > 100 µM (inactive)
GI50 (EKVX): > 100 µM (inactive)
GI50 (HCC 2998): > 100 µM (inactive)
GI50 (HCT-116): > 100 µM (inactive)
GI50 (HCT-15): > 100 µM
GI50 (HL-60): > 100 µM (inactive)
GI50 (HOP-62): > 100 µM (inactive)
GI50 (HOP-92): > 100 µM (inactive)
GI50 (HT-29): > 100 µM (inactive)
GI50 (Hs-578T): > 100 µM (inactive)
GI50 (IGROV-1): > 100 µM (inactive)
GI50 (K562): > 100 µM (inactive)
GI50 (KM12): > 100 µM (inactive)
GI50 (LOX IMVI): > 100 µM (inactive)
GI50 (M14): > 100 µM (inactive)
GI50 (MCF7): > 100 µM (inactive)
GI50 (MDA-MB-231): > 100 µM (inactive)
GI50 (MDA-MB-435): > 100 µM (inactive)
GI50 (MDA-N): > 100 µM (inactive)
GI50 (MOLT-4): > 100 µM (inactive)
GI50 (Malme-3M): > 100 µM (inactive)
GI50 (NCI-H226): > 100 µM (inactive)
GI50 (NCI-H23): > 100 µM (inactive)
GI50 (NCI-H522): > 100 µM (inactive)
GI50 (NCI/ADR-RES): > 100 µM (inactive)
GI50 (OVCAR-3): > 100 µM (inactive)
GI50 (OVCAR-4): > 100 µM (inactive)
GI50 (OVCAR-5): > 100 µM (inactive)
GI50 (OVCAR-8): > 100 µM (inactive)
GI50 (PC-3): > 100 µM (inactive)
GI50 (RPMI-8226): > 100 µM (inactive)
GI50 (RXF 393): > 100 µM (inactive)
GI50 (SF-268): > 100 µM (inactive)
GI50 (SF-295): > 100 µM (inactive)
GI50 (SF-539): > 100 µM (inactive)
GI50 (SK-MEL-28): > 100 µM (inactive)
GI50 (SK-MEL-2): > 100 µM (inactive)
GI50 (SK-MEL-5): > 100 µM (inactive)
GI50 (SK-OV-3): > 100 µM (inactive)
GI50 (SN12C): > 100 µM (inactive)
GI50 (SNB-19): > 100 µM (inactive)
GI50 (SNB-75): > 100 µM (inactive)
GI50 (SW-620): > 100 µM (inactive)
GI50 (T47D): > 100 µM (inactive)
GI50 (TK-10): > 100 µM (inactive)
GI50 (U-251): > 100 µM (inactive)
GI50 (UACC-257): > 100 µM (inactive)
GI50 (UO-31): > 100 µM (inactive)
